How the values were obtained:
[1] = Chimp pharmacokinetics Run A, IV or PO co-dosing of atazanavir and Compounds 114, 120, 122; type: in vivo, chimpanzee; settings: for concentration at 24 h: concentration detected intact in urine
Protocol: Chimp Pharmacokineties. Run A: A 4 mg/mL solution of atazanavir and each of Compounds 114, 120 and 122 were prepared in 10% DMI (dimethyl isosorbide), 15% EtOH, 35% PG in D5W. Specifically, for each compound, 240 mgs of compound was dissolved in a solution composed of 6 mL of DMI, 9 mL of EtOH and 21 mL PG. Once the compound was fully dissolved, 24 mL of D5W was added and the solution mixed.
Fifty-five mL of each drug solution is then combined and the mixture was sterile filtered using a 0.2 μm filter. This produced 220 mL of a 1:1:1:1 mixture atazanavir:Compound 114:Compound 120:Compound 122. The final concentration of each drug in the solution was 1 mg/mL. Each animal received 50 mL of this solution through either IV or PO routes.
(§1) Four chimps (two male and two female) were used in this study and were fasted overnight prior to administration of the compound solution. Animals were sedated with ketamine and/or telazol prior to dosing. Intravenous dosing was achieved by IV infusion over 30 minutes.
(§2) Approximately 4.5 mL of blood was collected into vacutainer tubes with sodium heparin as an anticoagulant at 0 (preinfusion), 15 min., 29.5 min (immediately before the end of the infusion), and then at 6, 15, 30, and 45 minutes, and 1, 2, 4, 6, 8, 10, 12, 24 hours after the infusion is stopped. A similar procedure was used to collect blood after oral dosing with samples taken at 0 (predose), 15, and 30 minutes, and at 1, 1.5, 2, 4, 6, 8, 10, 12, 24 hours postdose. Following sample collection, the vacutainer tubes were rocked by hand several times to insure adequate mixing. Blood samples were placed immediately on wet ice and centrifuged within 1 hour from time of collection. Following centrifugation, the resulting plasma was stored frozen at −70° C. until analysis. The results are summarized in FIGS. 4 and 5 and tables 6 and 7.

[2] = in vivo; settings: chimpanzee, po
Protocol: as §1, §2
Run B: Same as Run A, except the dose was 150 mg orally of each of atazanavir and compounds 114 and 120, and the vehicle was 10 percent ethanol, 40 percent polypropylglycol in 2.5 percent citric acid.

SMILES	Ratio of urine concentration, compound:Atazanavir ([1]; chimp A242E, PO, 24 hours, Run A)	Ratio of urine concentration, compound:Atazanavir ([1]; chimp A336C, IV, 24 hours, Run A)	Ratio of urine concentration, compound:Atazanavir ([1]; chimpanzee, in vivo, iv, 24 h)	concentration detected intact in urine ([1]; chimpanzee, in vivo, iv, 24 h) [µg/mL]	concentration at 24 h ([1]; chimpanzee, in vivo, iv) [µg/mL]	Ratio of urine concentration, compound:Atazanavir ([1]; chimpanzee, in vivo, po, 24 h)	concentration detected intact in urine ([1]; chimpanzee, in vivo, po, 24 h) [µg/mL]	concentration at 24 h ([1]; chimpanzee, in vivo, po) [µg/mL]	concentration detected intact in urine ([2]; 24 h) [µg/mL]	concentration at 24 h ([2]; concentration detected intact in urine) [µg/mL]
[2H]C([2H])([2H])OC(=O)N[C@H](C(=O)N[C@@H](Cc1ccccc1)[C@@H](O)CN(Cc1ccc(-c2ccccn2)cc1)NC(=O)[C@@H](NC(=O)OC([2H])([2H])[2H])C(C([2H])([2H])[2H])(C([2H])([2H])[2H])C([2H])([2H])[2H])C(C([2H])([2H])[2H])(C([2H])([2H])[2H])C([2H])([2H])[2H] [Compound 122, 1,14-Di(methyl-d3)(3S,8S,9S,12S)-3,12-bis[(1,1-dimethylethyl)-d9]-8-hydroxy-4,11-dioxo-9-(phenylmethyl)-6-[[4-(2-pyridinyl)phenyl]methyl]-2,5,6,10,13-pentaazatetradecanedioate]	2.25	1.82	1.57	3.25	3.13	2.29	1.18	1.28		
COC(=O)N[C@H](C(=O)N[C@@H](Cc1ccccc1)[C@@H](O)CN(Cc1ccc(-c2ccccn2)cc1)NC(=O)[C@@H](NC(=O)OC)C(C)(C)C)C(C)(C)C [Atazanavir, atazanavir, reference compound]				1.79	2		0.516	0.569	3.26	1.64

Source: US8258309B2, “Azapeptide derivatives” (priority 2007, dated 2012)
